For 18 molecules, EC50 results are on record in patent publication US20220054469A1, “FARNESOID X RECEPTOR AGONISTS AND USES THEREOF” (Metacrine, Inc., priority 2018, published 2022).

Bounds are passed on as bounds.

This experiment has as its target T1, hFXR (Homo sapiens, UniProt Q96RI1).
T1 construct: expressed in transfected cells; host or cells: CV-1 cells
T1 sequence (Q96RI1 1-486): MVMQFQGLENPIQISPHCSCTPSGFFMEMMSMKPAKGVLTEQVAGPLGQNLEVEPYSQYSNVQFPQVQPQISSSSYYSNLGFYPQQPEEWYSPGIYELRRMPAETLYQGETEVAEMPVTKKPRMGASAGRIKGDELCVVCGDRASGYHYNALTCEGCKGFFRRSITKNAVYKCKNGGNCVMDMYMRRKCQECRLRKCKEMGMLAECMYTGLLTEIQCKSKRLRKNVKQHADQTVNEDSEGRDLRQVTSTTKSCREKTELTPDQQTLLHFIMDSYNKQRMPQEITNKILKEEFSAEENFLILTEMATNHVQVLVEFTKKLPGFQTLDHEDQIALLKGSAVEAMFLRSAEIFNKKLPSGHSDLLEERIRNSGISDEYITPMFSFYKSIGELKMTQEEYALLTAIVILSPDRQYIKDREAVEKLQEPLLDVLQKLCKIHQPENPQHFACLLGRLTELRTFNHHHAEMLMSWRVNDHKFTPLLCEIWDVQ
T1 sequence (P19793 1-462 partner): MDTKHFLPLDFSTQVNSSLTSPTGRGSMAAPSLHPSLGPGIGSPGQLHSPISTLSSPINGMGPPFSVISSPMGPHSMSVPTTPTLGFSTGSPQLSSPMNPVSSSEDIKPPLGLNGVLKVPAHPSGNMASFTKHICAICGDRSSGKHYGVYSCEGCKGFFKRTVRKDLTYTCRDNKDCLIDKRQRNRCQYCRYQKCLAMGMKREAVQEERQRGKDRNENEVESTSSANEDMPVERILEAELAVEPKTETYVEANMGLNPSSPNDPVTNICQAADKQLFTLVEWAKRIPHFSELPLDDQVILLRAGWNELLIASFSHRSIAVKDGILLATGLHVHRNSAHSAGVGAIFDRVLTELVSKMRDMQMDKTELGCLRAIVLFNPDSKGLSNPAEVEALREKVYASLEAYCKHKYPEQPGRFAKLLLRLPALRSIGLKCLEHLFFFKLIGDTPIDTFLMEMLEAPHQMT
Briefly: In Vitro FXR Assay (TK). Format: cell-based. The settings on record: CV-1 cells transfected with hFXR, hRXR, TK-ECRE-luc and pCMX-YFP; incubated with compound for 18 hrs; luminescence. On the procedure: Example B-1: In Vitro FXR Assay (TK)
CV-1 cells were seeded at a density of 2,000,000 cells in a T175 flask with DMEM+10% charcoal double-stripped FBS and incubated at 37° C. in 5% CO2 for 18 h (O/N).
After 18 h of incubation, the medium in the T175 flask was changed with fresh DMEM+10% charcoal super-stripped serum. In a polypropylene tube, 2500 μL OptiMEM (Life Technologies, Cat #31985-062) was combined with expression plasmids for hFXR, hRXR, TK-ECRE-luc and pCMX-YFP. The tube was then briefly vortexed and incubated at room temperature for 5 minutes. Transfection reagent (X-tremeGENE HP from Roche, Cat #06 366 236 001) was added to the OptiMEM/plasmid mixture vortexed and incubated at room temperature for 20 minutes. Following incubation, the transfection reagent/DNA mixture complex was added to cells in the T175 flask and the cells were incubated at 37° C. in 5% CO2 for 18 h (O/N).
Compounds were serially diluted in DMSO and added to transfected CV-1 cells. The cells were then incubated for 18 hrs. The next day cells were lysed and examined for luminescence.

For the molecule `COc1ccc(C23CCC(CN(c4cncc(-c5cnn(C(C)C)c5)c4)C(=O)[C@H]4CC[C@H](CC(=O)O)CC4)(CC2)CC3)cc1C` (relative stereo) [Compound 2.11, trans-2-(4-((5-(1-Isopropyl-1H-pyrazol-4-yl)pyridin-3-yl)((4-(4-methoxy-3-methylphenyl)bicyclo[2.2.2]octan-1-yl)methyl)carbamoyl)cyclohexyl)acetic acid], the EC50 (usually the concentration needed to bring the measured effect to its halfway point) is 50 to 1000 nM.
On to `COc1ccc(C23CCC(CN(C(=O)[C@@H]4CCC[C@H](C(=O)O)C4)c4cc(-c5cnn(C(C)C)c5)ccn4)(CC2)CC3)cc1C` (relative stereo) [Compound 3.05, cis-3-((4-(1-Isopropyl-1H-pyrazol-4-yl)pyridin-2-yl)((4-(4-methoxy-3-methylphenyl)bicyclo[2.2.2]octan-1-yl)methyl)carbamoyl)cyclohexanecarboxylic acid], for which the EC50 was 1000 to 10000 nM.
In the case of `COc1ccc(C23CCC(CN(C(=O)[C@@H]4CCC[C@@H](C(=O)O)C4)c4cc(-c5cnn(C(C)C)c5)ccn4)(CC2)CC3)cc1C` (relative stereo) [Compound 3.06, trans-3-((4-(1-Isopropyl-1H-pyrazol-4-yl)pyridin-2-yl)((4-(4-methoxy-3-methylphenyl)bicyclo[2.2.2]octan-1-yl)methyl)carbamoyl)cyclohexanecarboxylic acid] it was 50 to 1000 nM.
As for `COc1ccc(C23CCC(CN(c4ccnc(-c5cnn(C(C)C)c5)c4)C(=O)[C@H]4CC[C@H](CC(=O)O)CC4)(CC2)CC3)cc1C` (relative stereo) [Compound 4.05, trans-2-(4-((2-(1-Isopropyl-1H-pyrazol-4-yl)pyridin-4-yl)((4-(4-methoxy-3-methylphenyl)bicyclo[2.2.2]octan-1-yl)methyl)carbamoyl)cyclohexyl)acetic acid], the EC50 was in the range of 50 to 1000 nM.
In the case of `COc1ccc(C23CCC(CN(c4cccc(-c5cnn(C(C)C)c5)n4)C(=O)[C@H]4CC[C@H](CC(=O)O)CC4)(CC2)CC3)cc1C` (relative stereo) [Compound 4.06, trans-2-(4-((6-(1-Isopropyl-1H-pyrazol-4-yl)pyridin-2-yl)((4-(4-methoxy-3-methylphenyl)bicyclo[2.2.2]octan-1-yl)methyl)carbamoyl)cyclohexyl)acetic acid] it was no more than 50 nM; in that of `COc1ccc(C23CCC(CN(c4nccc(-c5cnn(C(C)C)c5)n4)C(=O)[C@H]4CC[C@H](CC(=O)O)CC4)(CC2)CC3)cc1C` (relative stereo) [Compound 4.09, trans-2-(4-((4-(1-Isopropyl-1H-pyrazol-4-yl)pyrimidin-2-yl)((4-(4-methoxy-3-methylphenyl)bicyclo[2.2.2]octan-1-yl)methyl)carbamoyl)cyclohexyl)acetic acid], no more than 50 nM; in that of `COc1ccc(C23CCC(CN(c4cncc(-c5cnn(C(C)C)c5)n4)C(=O)[C@H]4CC[C@H](CC(=O)O)CC4)(CC2)CC3)cc1C` (relative stereo) [Compound 4.10, trans-2-(4-((6-(1-Isopropyl-1H-pyrazol-4-yl)pyrazin-2-yl)((4-(4-methoxy-3-methylphenyl)bicyclo[2.2.2]octan-1-yl)methyl)carbamoyl)cyclohexyl)acetic acid], 50 to 1000 nM.
The value for `COc1ccc(C23CCC(CN(C(=O)[C@@H]4CCC[C@H](CC(=O)O)C4)c4cc(-c5cnn(C(C)C)c5)ccn4)(CC2)CC3)cc1C` (relative stereo) [Compound 5, cis-2-(3-((4-(1-isopropyl-1H-pyrazol-4-yl)pyridin-2-yl)((4-(4-methoxy-3-methylphenyl)bicyclo[2.2.2]octan-1-yl)methyl)carbamoyl)cyclohexyl)acetic acid] was no more than 50 nM; that for `COc1ccc(C23CCC(CN(C(=O)[C@@H]4CCC[C@@H](CC(=O)O)C4)c4cc(-c5cnn(C(C)C)c5)ccn4)(CC2)CC3)cc1C` (relative stereo) [Compound 5.01, trans-2-(3-((4-(1-Isopropyl-1H-pyrazol-4-yl)pyridin-2-yl)((4-(4-methoxy-3-methylphenyl)bicyclo[2.2.2]octan-1-yl)methyl)carbamoyl)cyclohexyl)acetic acid] was 50 to 1000 nM.
`COc1ccc(C23CCC(CN(c4cc(-c5cnn(C(C)C)c5)ccn4)C(=O)[C@H]4CC[C@H](CCC(=O)O)CC4)(CC2)CC3)cc1C` [Compound 1, trans-3-(4-((4-(1-Isopropyl-1H-pyrazol-4-yl)pyridin-2-yl)((4-(4-methoxy-3-methylphenyl)bicyclo[2.2.2]octan-1-yl)methyl)carbamoyl)cyclohexyl)propanoic acid]: the EC50 is no more than 50 nM.
The value for `COc1ccc(C23CCC(CN(c4cc(-c5cnn(C(C)C)c5)ccn4)C(=O)[C@H]4CC[C@H](CC(=O)O)CC4)(CC2)CC3)cc1C` [Compound 1.01, trans-2-(4-((4-(1-Isopropyl-1H-pyrazol-4-yl)pyridin-2-yl)((4-(4-methoxy-3-methylphenyl)bicyclo[2.2.2]octan-1-yl)methyl)carbamoyl)cyclohexyl)acetic acid] was no more than 50 nM.
The value for `CN(C)c1ccc(C23CCC(CN(c4cccc(-c5cnn(C(C)(C)C)c5)c4)C(=O)[C@H]4CC[C@H](CC(=O)O)CC4)(CC2)CC3)cn1` [Compound 2, trans-2-(4-((3-(1-(tert-Butyl)-1H-pyrazol-4-yl)phenyl)((4-(6-(dimethylamino)pyridin-3-yl)bicyclo[2.2.2]octan-1-yl)methyl)carbamoyl)cyclohexyl)acetic acid] was no more than 50 nM.
With `COc1ccc([C@H]2CC[C@H](CN(c3cccc(-c4cnn(C(C)C)c4)c3)C(=O)[C@H]3CC[C@H](C(=O)O)CC3)CC2)cc1C` [Compound 2.01, trans-4-((3-(1-Isopropyl-1H-pyrazol-4-yl)phenyl)((trans-4-(4-methoxy-3-methylphenyl)cyclohexyl)methyl)carbamoyl) cyclohexanecarboxylic acid], the EC50 is no more than 50 nM.
The value for `COc1ccc([C@H]2CC[C@H](CN(c3cccc(-c4cnn(C(C)(C)C)c4)c3)C(=O)[C@H]3CC[C@H](C(=O)O)CC3)CC2)cc1C` [Compound 2.02, trans-4-((3-(1-(tert-Butyl)-1H-pyrazol-4-yl)phenyl)((trans-4-(4-methoxy-3-methylphenyl)cyclohexyl)methyl)carbamoyl) cyclohexanecarboxylic acid] was 50 to 1000 nM; that for `COc1ccc(C23CCC(CN(c4cccc(-c5cnn(C(C)(C)C)c5)c4)C(=O)[C@H]4CC[C@H](C(=O)O)CC4)(CC2)CC3)cc1C` [Compound 2.03, trans-4-((3-(1-(tert-Butyl)-1H-pyrazol-4-yl)phenyl)((4-(4-methoxy-3-methylphenyl)bicyclo[2.2.2]octan-1-yl)methyl)carbamoyl)cyclohexanecarboxylic acid] was no more than 50 nM.
The value for `COc1ccc([C@H]2CC[C@H](CN(c3cccc(-c4cnn(C(C)(C)C)c4)c3)C(=O)[C@H]3CC[C@H](CC(=O)O)CC3)CC2)cc1C` [Compound 2.04, 2-(trans-4-((3-(1-(tert-Butyl)-1H-pyrazol-4-yl)phenyl)((trans-4-(4-methoxy-3-methylphenyl)cyclohexyl)methyl)carbamoyl)cyclohexyl)acetic acid] was no more than 50 nM; that for `COc1ccc([C@H]2CC[C@H](CN(c3cc(-c4cnn(C(C)(C)C)c4)ccn3)C(=O)[C@H]3CC[C@H](CC(=O)O)CC3)CC2)cc1C` [Compound 2.05, 2-(trans-4-((4-(1-(tert-Butyl)-1H-pyrazol-4-yl)pyridin-2-yl)((trans-4-(4-methoxy-3-methylphenyl)cyclohexyl)methyl)carbamoyl)cyclohexyl)acetic acid] was 50 to 1000 nM.
The value for `COc1ccc(C23CCC(CN(c4cccc(-c5cnn(C(C)(C)C)c5)c4)C(=O)[C@H]4CC[C@H](CC(=O)O)CC4)(CC2)CC3)cc1C` [Compound 2.06, trans-2-(4-((3-(1-(tert-Butyl)-1H-pyrazol-4-yl)phenyl)((4-(4-methoxy-3-methylphenyl)bicyclo[2.2.2]octan-1-yl)methyl)carbamoyl)cyclohexyl)acetic acid] was no more than 50 nM.
